Results from patent US5877320A, “Process for the preparation of organotin compounds useful as cytotoxic agents” (priority 1995, dated 1999).

Legend:
[1] = system: MCF7; test: In-vitro cytotoxicity [ID50] against MCF7 (breast cancer); assay type: cell-based, human; settings: NCI-USA protocol
Text: (§1) The in-vitro cytotoxicity determined in terms of inhibition dose [ID50 ] of compounds having the formulae 8-11 prepared by the process of the present invention against […] different human cancer cell lines namely MCF7, EVSAT (Breast Cancer), WIDR (Colon Cancer), IGROV (Ovarian Cancer), M19MEL (Melanoma), A498 (Renal Cancer) and H226 (Nonsmall cell lung Cancer) have been measured following NCI-USA protocol [M. R. Boyd, "Status of the NCI preclinical antitumour drug discovery screen. Principles & practice of oncology 3, pp. 1-12 (1989)] alongwith the latest ID50 values of inorganic cancer drugs are presented in Table 1.

[2] = system: WIDR; test: In-vitro cytotoxicity [ID50] against WIDR (colon cancer); assay type: cell-based, human; settings: NCI-USA protocol
Text: as §1

[3] = system: EVSAT; test: In-vitro cytotoxicity [ID50] against EVSAT (breast cancer); assay type: cell-based, human; settings: NCI-USA protocol
Text: as §1

[4] = system: A498; test: In-vitro cytotoxicity [ID50] against A498 (renal cancer); assay type: cell-based, human; settings: NCI-USA protocol
Text: as §1

[5] = system: M19MEL; test: In-vitro cytotoxicity [ID50] against M19MEL (melanoma); assay type: cell-based, human; settings: NCI-USA protocol
Text: as §1

[6] = system: IGROV; test: In-vitro cytotoxicity [ID50] against IGROV (ovarian cancer); assay type: cell-based, human; settings: NCI-USA protocol
Text: as §1

[7] = system: H226; test: In-vitro cytotoxicity [ID50] against H226 (nonsmall cell lung cancer); assay type: cell-based, human; settings: NCI-USA protocol
Text: as §1

[8] = system: P388 lymphocytic leukemia; settings: in words; literature; cited from earlier work

Compound	Anti-tumour activity [ID50] [1] [µg/mL]	Anti-tumour activity [ID50] [2] [µg/mL]	Anti-tumour activity [ID50] [3] [µg/mL]	Anti-tumour activity [ID50] [4] [µg/mL]	Anti-tumour activity [ID50] [5] [µg/mL]	Anti-tumour activity [ID50] [6] [µg/mL]	Anti-tumour activity [ID50] [7] [µg/mL]	activity against P388 in mice [8]
N.N.O=C([O-])C1(C(=O)[O-])CCC1.[Pt+2] [Carboplatin, reference compound]	10.5	3.5	4.5	18	5.5	2.4	25	
N.N.[Cl][Pt][Cl] [cis-platin, reference compound]	1.4	1.55	0.92	1.2	0.78	0.227	3.158	
[Cl][Sn]([Cl])([c]1ccccc1)[CH]1CCCCC1 [cyclohexyl-(phenyl)tindichloride]								inhibition of P-388 in mice
bipyridine complex of dibenzyltindichloride [compound 11]	0.12	0.8	0.15	0.16	0.32	0.08	0.35	
bis(imidazole) complex of dibenzyltindichloride [compound 10]	0.7	3.2	0.4	1	1.5	3.2	1.3	
bis(indole) complex of dibenzyltindichloride [compound 8]	0.15	0.85	0.15	0.2	0.4	0.11	0.2	
bis(thiophene) complex of dibenzyltindichloride [compound 9]	0.068	0.55	0.13	0.11	0.25	0.05	0.4	
dibenzyl(phenanthroline)-tindichloride								inactive
